Test results reported in ChEMBL document CHEMBL1156005, “Non-nucleoside inhibitors of HCV polymerase NS5B. Part 3: synthesis and optimization studies of benzothiazine-substituted tetramic acids” (Bioorg Med Chem Lett, 2009).

Experiments:
[1] = target: Genome polyprotein (Hepatitis C virus genotype 1b (isolate Con1) (HCV), UniProt Q9WMX2); assay: Inhibition of […] 1b con1 NS5B polymerase assessed as [3H]UTP incorporation into acid insoluble RNA product
[2] = system: Hepatitis C virus; assay: Antiviral activity against HCV 1b infected in human 2209-23 cells assessed as inhibition of virus RNA replication by renilla luciferase reporter gene assay in presence of 5% fetal bovine serum; type: functional, organism-based, Hepacivirus hominis; settings: genotype 1b
[3] = system: Hepatitis C virus; assay: Antiviral activity against HCV 1b infected in human 2209-23 cells assessed as inhibition of virus RNA replication by renilla luciferase reporter gene assay in presence of 40% human serum; type: functional, organism-based, Hepacivirus hominis; settings: genotype 1b
[4] = system: Hepatitis C virus; assay: Selectivity ratio, EC50 for HCV 1b in presence of 40% human serum to EC50 for HCV 1b in presence of 5% fetal bovine serum; type: functional, Hepacivirus hominis, genotype 1b
[5] = Cytotoxicity against human 2209-23 cells assessed as […] by WST-1 assay; type: cell-based
[6] = Clearance in rat at 2 mg/kg, iv; type: ADME, organism-based; design: dose 2 mg/kg, route intravenous; settings: in vivo
[7] = system: Caco-2; assay: Efflux ratio of permeability from […] side in human Caco-2 cells after 21 days; type: ADME, cell-based; settings: caco-2, 504 h
[8] = Permeability by PAMPA; type: ADME; settings: read-out: permeability
[9] = Metabolic stability in rat liver microsomes; type: ADME, Microsome; settings: read-out: Stability
[10] = target: Cytochrome P450 3A4 (Homo sapiens, UniProt P08684); assay: Inhibition of CYP3A4 by time dependent inactivation assay; type: ADME
Cytochrome P450 3A4, sequence (P08684 whole entry): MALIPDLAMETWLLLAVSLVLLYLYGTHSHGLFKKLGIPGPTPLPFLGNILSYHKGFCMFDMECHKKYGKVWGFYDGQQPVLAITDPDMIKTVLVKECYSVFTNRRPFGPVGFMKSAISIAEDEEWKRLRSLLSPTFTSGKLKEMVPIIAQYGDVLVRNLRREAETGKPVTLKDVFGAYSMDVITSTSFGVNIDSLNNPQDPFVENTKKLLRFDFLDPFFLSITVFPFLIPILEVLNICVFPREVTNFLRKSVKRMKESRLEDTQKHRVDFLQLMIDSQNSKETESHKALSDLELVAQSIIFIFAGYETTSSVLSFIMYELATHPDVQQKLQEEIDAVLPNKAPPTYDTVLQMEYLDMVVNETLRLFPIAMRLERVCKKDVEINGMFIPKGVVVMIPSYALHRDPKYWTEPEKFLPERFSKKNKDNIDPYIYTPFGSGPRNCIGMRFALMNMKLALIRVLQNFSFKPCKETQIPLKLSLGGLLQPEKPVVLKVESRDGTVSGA

[11] = Tmax in po dosed rat; type: ADME, organism-based; settings: in vivo
[12] = AUC in rat at 5 mg/kg; type: ADME, organism-based; design: dose 5 mg/kg; settings: plasma
[13] = Oral bioavailability in rat; type: ADME, organism-based; settings: in vivo
[14] = system: Hepatitis C virus; assay: Antiviral activity against HCV 1b infected in human 2209-23 cells assessed as inhibition of virus RNA replication by renilla luciferase reporter gene assay; type: functional, organism-based, Hepacivirus hominis; settings: genotype 1b
[15] = system: Hepatitis C virus; assay: Ratio of EC50 for HCV 1a over EC50 for HCV 1b

Genome polyprotein, sequence (Q9WMX2 2420-3010 limits assumed): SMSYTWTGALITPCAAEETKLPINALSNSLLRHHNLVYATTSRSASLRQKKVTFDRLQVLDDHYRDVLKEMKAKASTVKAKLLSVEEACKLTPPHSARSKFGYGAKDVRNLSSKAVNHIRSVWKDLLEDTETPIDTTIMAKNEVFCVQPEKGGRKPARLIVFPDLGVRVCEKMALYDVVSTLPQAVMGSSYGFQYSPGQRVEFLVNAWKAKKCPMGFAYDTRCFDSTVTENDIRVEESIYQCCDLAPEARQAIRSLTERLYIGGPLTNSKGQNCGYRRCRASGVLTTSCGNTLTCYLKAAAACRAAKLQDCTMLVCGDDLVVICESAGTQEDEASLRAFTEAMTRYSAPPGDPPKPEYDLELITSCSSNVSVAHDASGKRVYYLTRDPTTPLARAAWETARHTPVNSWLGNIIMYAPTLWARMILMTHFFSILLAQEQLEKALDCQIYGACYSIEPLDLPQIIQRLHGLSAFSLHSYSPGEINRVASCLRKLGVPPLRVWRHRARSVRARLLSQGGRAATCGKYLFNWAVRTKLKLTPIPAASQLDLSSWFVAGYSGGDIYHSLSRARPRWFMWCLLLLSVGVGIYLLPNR

Row | SMILES | IC50 [1] | EC50 [2] | EC50 [3] | clearance [6] | Ratio [7] | Papp [8] | microsomal CLint [9] | inhibition (INH) [10] | Tmax [11] | AUC [12] | bioavailability [13] | EC50 [14] | Ratio EC50 [4] | CC50 [5] | Ratio EC50 [15]
1 | CC(C)(C)CCN1C(=O)C(C2=CS(=O)(=O)c3cc(NS(C)(=O)=O)ccc3N2)=C(O)[C@@H]1C(C)(C)C | 8 nM | 16 nM | 65 nM | > 100 mL/min/kg | 14 | 1.8 ×10⁻⁶ cm/s | 79 µL/min/mg | 23% | – | – | – | – | 4.1 | > 50000 nM | –
2 | CC(C)(C)[C@H]1C(O)=C(C2=CS(=O)(=O)c3cc(NS(C)(=O)=O)ccc3N2)C(=O)N1Cc1ccc(F)cc1 | 7 nM | 12 nM | 33 nM | 101 mL/min/kg | 25 | 1.4 ×10⁻⁶ cm/s | 32 µL/min/mg | 41% | 1.3 h | 189 ng·h/mL | 22% | 5 nM | 2.7 | > 50000 nM | 4
3 | CC(C)(C)[C@H]1C(O)=C(C2=CS(=O)(=O)c3cc(NS(C)(=O)=O)cc(F)c3N2)C(=O)N1Cc1ccc(F)cc1 | 9 nM | – | – | 36 mL/min/kg | – | – | – | 8.5% | – | – | – | 36 nM | – | > 50000 nM | 4
4 | CC(C)(C)[C@H]1C(O)=C(C2=CS(=O)(=O)c3cc(C#N)ccc3N2)C(=O)N1Cc1ccc(F)cc1 | 1200 nM | – | – | – | – | – | – | 10.9% | – | – | – | 6850 nM | – | > 50000 nM | –
5 | CC(C)(C)[C@@H]1NC(=O)C(C2=CS(=O)(=O)c3cc(NS(C)(=O)=O)ccc3N2)=C1O | – | – | – | – | – | – | – | 5.7% | – | – | – | – | – | – | –
6 | CC(C)(C)[C@H]1C(O)=C(C2=CS(=O)(=O)c3cc([N+](=O)[O-])ccc3N2)C(=O)N1Cc1ccc(F)cc1 | 1800 nM | – | – | – | – | – | – | 0.4% | – | – | – | 16500 nM | – | > 50000 nM | –
7 | CC(C)(C)[C@H]1C(O)=C(C2=C(C(N)=O)S(=O)(=O)c3cc(NS(C)(=O)=O)ccc3N2)C(=O)N1Cc1ccc(F)cc1 | 11 nM | – | – | 5 mL/min/kg | – | – | – | 17.8% | – | – | – | 16 nM | – | > 50000 nM | 4
8 | CC(C)(C)[C@H]1C(O)=C(C2=CS(=O)(=O)c3cc(NS(C)(=O)=O)ccc3N2)C(=O)N1Cc1ccccc1 | 8 nM | 32 nM | 139 nM | 144 mL/min/kg | 11 | 1.8 ×10⁻⁶ cm/s | – | 19% | – | – | – | – | 4.3 | > 50000 nM | 4
9 | CC(C)(C)[C@H]1C(O)=C(C2=CS(=O)(=O)c3cc(NS(C)(=O)=O)ccc3N2)C(=O)N1Cc1ccc(F)cn1 | 42 nM | 201 nM | 1720 nM | – | – | – | – | – | – | – | – | – | 8.5 | > 50000 nM | –
10 | CCC(C)(C)[C@H]1C(O)=C(C2=CS(=O)(=O)c3cc(NS(C)(=O)=O)ccc3N2)C(=O)N1Cc1ccc(F)c(C)c1 | – | – | – | – | – | – | – | – | – | – | – | 24 nM | – | – | –
11 | CC(C)(C)[C@H]1C(O)=C(C2=CS(=O)(=O)c3cc(F)ccc3N2)C(=O)N1Cc1ccc(F)cc1 | 338 nM | – | – | – | – | – | – | 7.6% | – | – | – | 1870 nM | – | > 50000 nM | –
12 | CC(C)(CO)[C@H]1C(O)=C(C2=CS(=O)(=O)c3cc(NS(C)(=O)=O)ccc3N2)C(=O)N1Cc1ccc(F)cc1 | – | – | – | – | – | – | – | 20.5% | – | – | – | – | – | – | –
13 | CC1=C(C2=C(O)[C@H](C(C)(C)C)N(Cc3ccc(F)cc3)C2=O)Nc2ccc(NS(C)(=O)=O)cc2S1(=O)=O | 10 nM | – | – | – | – | – | – | 21.9% | – | – | – | 78 nM | – | > 50000 nM | –
14 | CC(C)(C)[C@H]1C(O)=C(C2=CS(=O)(=O)c3cc(NS(C)(=O)=O)ccc3N2)C(=O)N1Cc1ccc(F)cc1F | 13 nM | 35 nM | 226 nM | – | – | – | – | – | – | – | – | – | 6.5 | > 50000 nM | 4

Now from value to compound, other results behind:

Row | IC50 [1] | EC50 [2] | EC50 [3] | clearance [6] | Ratio [7] | Papp [8] | microsomal CLint [9] | inhibition (INH) [10] | Tmax [11] | AUC [12] | bioavailability [13] | EC50 [14] | SMILES | Ratio EC50 [4] | CC50 [5] | Ratio EC50 [15]
15 | 4 nM | – | – | – | – | – | – | 15.1% | – | – | – | 20 nM | CC(=O)C1=C(C2=C(O)[C@H](C(C)(C)C)N(Cc3ccc(F)cc3)C2=O)Nc2ccc(NS(C)(=O)=O)cc2S1(=O)=O | – | > 50000 nM | –
16 | 3 nM | 12 nM | 122 nM | 101 mL/min/kg | – | 1.62 ×10⁻⁶ cm/s | 327 µL/min/mg | 39% | – | – | – | – | Cc1cc(CN2C(=O)C(C3=CS(=O)(=O)c4cc(NS(C)(=O)=O)ccc4N3)=C(O)[C@@H]2C(C)(C)C)ccc1F | 10.2 | > 50000 nM | 4
17 | 4 nM | 28 nM | 422 nM | – | – | – | – | – | – | – | – | – | COc1cc(CN2C(=O)C(C3=CS(=O)(=O)c4cc(NS(C)(=O)=O)ccc4N3)=C(O)[C@@H]2C(C)(C)C)ccc1F | 15.1 | > 50000 nM | –
18 | 6 nM | – | – | – | – | – | – | 24.7% | – | – | – | 16 nM | CC(C)(C)[C@H]1C(O)=C(C2=C(C#N)S(=O)(=O)c3cc(NS(C)(=O)=O)ccc3N2)C(=O)N1Cc1ccc(F)cc1 | – | > 50000 nM | 4
19 | 5 nM | 9 nM | 163 nM | 86 mL/min/kg | – | 0.98 ×10⁻⁶ cm/s | 84 µL/min/mg | 41% | – | – | – | – | CC(C)(C)[C@H]1C(O)=C(C2=CS(=O)(=O)c3cc(NS(C)(=O)=O)ccc3N2)C(=O)N1Cc1ccc(F)c(Cl)c1 | 18.1 | > 50000 nM | –
20 | 5 nM | 30 nM | 660 nM | – | – | – | – | – | – | – | – | – | CC(C)CCN1C(=O)C(C2=CS(=O)(=O)c3cc(NS(C)(=O)=O)ccc3N2)=C(O)[C@@H]1C(C)(C)C | 22 | > 50000 nM | –
21 | 2 nM | – | – | – | – | – | – | 31% | – | – | – | 4 nM | CC(C)(C)[C@H]1C(O)=C(C2=C(Cl)S(=O)(=O)c3cc(NS(C)(=O)=O)ccc3N2)C(=O)N1Cc1ccc(F)cc1 | – | > 50000 nM | –
